According to ChEMBL document CHEMBL1201862, “PubChem BioAssay data set” (2004):
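Following 48 hours of exposure in 96-well plates, responses at five concentrations were used to interpolate endpoints linearly. GI50 = concentration required for 50% inhibition of growth.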 Activity calls are given as the source filed them. Cut-off read from the data, not from the text of the source: active = GI50 up to about 1.1 µM and inactive = higher.

Tests used:
Experiment in all cases: growth of human tumour cells (NCI), 48 h
786-0 = test system: 786-0
A498 = test system: A498
A549 = test system: A549
ACHN = test system: ACHN
CCRF-CEM = test system: CCRF-CEM
COLO 205 = test system: COLO 205
DLD-1 = test system: DLD-1
DMS-114 = test system: DMS-114
DMS-273 = test system: DMS-273
EKVX = test system: EKVX
HCC 2998 = test system: HCC 2998
HCT-116 = test system: HCT-116
HCT-15 = test system: HCT-15
HL-60 = test system: HL-60
HOP-18 = test system: HOP-18
HOP-62 = test system: HOP-62
HOP-92 = test system: HOP-92
HT-29 = test system: HT-29
IGROV-1 = test system: IGROV-1
K562 = test system: K562
KM-20L2 = test system: KM-20L2
KM12 = test system: KM12
LOX IMVI = test system: LOX IMVI
LXFL 529 = test system: LXFL 529
M14 = test system: M14
M19-MEL = test system: M19-MEL
MOLT-4 = test system: MOLT-4
Malme-3M = test system: Malme-3M
NCI-H23 = test system: NCI-H23
NCI-H460 = test system: NCI-H460
NCI-H522 = test system: NCI-H522
OVCAR-3 = test system: OVCAR-3
OVCAR-4 = test system: OVCAR-4
OVCAR-5 = test system: OVCAR-5
OVCAR-8 = test system: OVCAR-8
RPMI-8226 = test system: RPMI-8226
RXF 393 = test system: RXF 393
RXF 631 = test system: RXF 631
SF-268 = test system: SF-268
SF-295 = test system: SF-295
SF-539 = test system: SF-539
SK-MEL-28 = test system: SK-MEL-28
SK-MEL-2 = test system: SK-MEL-2
SK-OV-3 = test system: SK-OV-3
SN12C = test system: SN12C
SNB-19 = test system: SNB-19
SNB-75 = test system: SNB-75
SNB-78 = test system: SNB-78
SW-620 = test system: SW-620
TK-10 = test system: TK-10
U-251 = test system: U-251
UACC-257 = test system: UACC-257
UACC-62 = test system: UACC-62
UO-31 = test system: UO-31
CAKI-1 = test system: CAKI-1
NCI-H226 = test system: NCI-H226
SK-MEL-5 = test system: SK-MEL-5
XF498 = test system: XF498

`O/N=C1\CCCCC1C(NO)c1ccccc1` (stereo unspecified) was tested, and the GI50 (786-0) was > 100 µM (inactive), the GI50 (A498) was > 100 µM (inactive) and the GI50 (A549) was > 100 µM (inactive). The GI50 (ACHN) was > 100 µM (inactive), the GI50 (CCRF-CEM) was > 100 µM (inactive) and the GI50 (COLO 205) was > 100 µM (inactive). For the same molecule, the GI50 (DLD-1) was > 100 µM (inactive), the GI50 (DMS-114) was 67 µM (inactive) and the GI50 (DMS-273) was > 100 µM (inactive). For the same molecule, the GI50 (EKVX) was > 100 µM (inactive), the GI50 (HCC 2998) was > 100 µM (inactive) and the GI50 (HCT-116) was > 100 µM (inactive). For the same molecule, the GI50 (HCT-15) was over 100 µM, the GI50 (HL-60) was 57.7 µM (inactive) and the GI50 (HOP-18) was > 100 µM (inactive). For the same molecule, the GI50 (HOP-62) was > 100 µM (inactive), the GI50 (HOP-92) was 42.7 µM (inactive) and the GI50 (HT-29) was > 100 µM (inactive). The GI50 (IGROV-1) was > 100 µM (inactive), the GI50 (K562) was > 100 µM (inactive) and the GI50 (KM-20L2) was > 100 µM (inactive). The GI50 (KM12) was > 100 µM (inactive), the GI50 (LOX IMVI) was > 100 µM (inactive) and the GI50 (LXFL 529) was > 100 µM (inactive). The GI50 (M14) was > 100 µM (inactive), the GI50 (M19-MEL) was > 100 µM (inactive) and the GI50 (MOLT-4) was 69.3 µM (inactive). For the same molecule, the GI50 (Malme-3M) was > 100 µM (inactive), the GI50 (NCI-H23) was > 100 µM (inactive) and the GI50 (NCI-H460) was > 100 µM (inactive). The GI50 (NCI-H522) was 81.5 µM (inactive), the GI50 (OVCAR-3) was > 100 µM (inactive) and the GI50 (OVCAR-4) was > 100 µM (inactive). The GI50 (OVCAR-5) was > 100 µM (inactive), the GI50 (OVCAR-8) was > 100 µM (inactive) and the GI50 (RPMI-8226) was > 100 µM (inactive). The GI50 (RXF 393) was > 100 µM (inactive), the GI50 (RXF 631) was > 100 µM (inactive) and the GI50 (SF-268) was 98.9 µM (inactive). For the same molecule, the GI50 (SF-295) was > 100 µM (inactive), the GI50 (SF-539) was > 100 µM (inactive) and the GI50 (SK-MEL-28) was > 100 µM (inactive). The GI50 (SK-MEL-2) was > 100 µM (inactive), the GI50 (SK-OV-3) was > 100 µM (inactive) and the GI50 (SN12C) was > 100 µM (inactive). For the same molecule, the GI50 (SNB-19) was > 100 µM (inactive), the GI50 (SNB-75) was 23.7 µM (inactive) and the GI50 (SNB-78) was > 100 µM (inactive). For the same molecule, the GI50 (SW-620) was > 100 µM (inactive), the GI50 (TK-10) was > 100 µM (inactive) and the GI50 (U-251) was > 100 µM (inactive). For the same molecule, the GI50 (UACC-257) was > 100 µM (inactive), the GI50 (UACC-62) was > 100 µM (inactive) and the GI50 (UO-31) was 89.5 µM (inactive).

In the case of `Cc1cc2c(cc1C)[n+]([O-])c(C(=O)C/C(=N/NC(=O)c1ccccc1O)C(=O)Nc1ccccc1C(C)C)c(C)[n+]2[O-]`, the GI50 (786-0) is reported as 88.1 µM (inactive), the GI50 (A498) is reported as > 100 µM (inactive) and the GI50 (A549) is reported as > 100 µM (inactive). The GI50 (ACHN) was > 100 µM (inactive), the GI50 (CAKI-1) was > 100 µM (inactive) and the GI50 (CCRF-CEM) was 27.3 µM (inactive). For the same molecule, the GI50 (COLO 205) was > 100 µM (inactive), the GI50 (DLD-1) was 53.7 µM (inactive) and the GI50 (DMS-114) was 98.6 µM (inactive). For the same molecule, the GI50 (DMS-273) was 99.5 µM (inactive), the GI50 (EKVX) was > 100 µM (inactive) and the GI50 (HCC 2998) was > 100 µM (inactive). The GI50 (HCT-116) was > 100 µM (inactive), the GI50 (HCT-15) was over 100 µM and the GI50 (HL-60) was 14.8 µM (inactive). For the same molecule, the GI50 (HOP-18) was 89.5 µM (inactive), the GI50 (HOP-62) was > 100 µM (inactive) and the GI50 (HT-29) was > 100 µM (inactive). For the same molecule, the GI50 (IGROV-1) was > 100 µM (inactive), the GI50 (K562) was 31.6 µM (inactive) and the GI50 (KM-20L2) was > 100 µM (inactive). The GI50 (KM12) was > 100 µM (inactive), the GI50 (LOX IMVI) was 87.3 µM (inactive) and the GI50 (LXFL 529) was 63 µM (inactive). The GI50 (M14) was > 100 µM (inactive), the GI50 (M19-MEL) was > 100 µM (inactive) and the GI50 (MOLT-4) was 21.9 µM (inactive). The GI50 (Malme-3M) was > 100 µM (inactive), the GI50 (NCI-H226) was > 100 µM (inactive) and the GI50 (NCI-H23) was > 100 µM (inactive). For the same molecule, the GI50 (NCI-H460) was 61.8 µM (inactive), the GI50 (NCI-H522) was 42.6 µM (inactive) and the GI50 (OVCAR-3) was 37.2 µM (inactive). The GI50 (OVCAR-4) was 54.1 µM (inactive), the GI50 (OVCAR-5) was > 100 µM (inactive) and the GI50 (OVCAR-8) was > 100 µM (inactive). The GI50 (RXF 393) was > 100 µM (inactive), the GI50 (RXF 631) was > 100 µM (inactive) and the GI50 (SF-268) was 68.2 µM (inactive). The GI50 (SF-295) was > 100 µM (inactive), the GI50 (SF-539) was > 100 µM (inactive) and the GI50 (SK-MEL-28) was > 100 µM (inactive). The GI50 (SK-MEL-2) was > 100 µM (inactive), the GI50 (SK-MEL-5) was > 100 µM (inactive) and the GI50 (SK-OV-3) was > 100 µM (inactive). The GI50 (SN12C) was > 100 µM (inactive), the GI50 (SNB-19) was > 100 µM (inactive) and the GI50 (SNB-75) was 88.5 µM (inactive). The GI50 (SNB-78) was > 100 µM (inactive), the GI50 (SW-620) was 97.1 µM (inactive) and the GI50 (TK-10) was > 100 µM (inactive). For the same molecule, the GI50 (U-251) was > 100 µM (inactive), the GI50 (UACC-257) was > 100 µM (inactive) and the GI50 (UACC-62) was 68.1 µM (inactive).

In the case of `NC12CC3CC(C1)CC(Cl)(C3)C2`, the GI50 (786-0) is reported as > 100 µM (inactive), the GI50 (A498) is reported as > 100 µM (inactive) and the GI50 (A549) is reported as > 100 µM (inactive). For the same molecule, the GI50 (ACHN) was > 100 µM (inactive), the GI50 (CCRF-CEM) was > 100 µM (inactive) and the GI50 (COLO 205) was > 100 µM (inactive). The GI50 (DLD-1) was > 100 µM (inactive), the GI50 (DMS-114) was > 100 µM (inactive) and the GI50 (DMS-273) was > 100 µM (inactive). The GI50 (EKVX) was > 100 µM (inactive), the GI50 (HCC 2998) was > 100 µM (inactive) and the GI50 (HCT-116) was > 100 µM (inactive). The GI50 (HL-60) was > 100 µM (inactive), the GI50 (HOP-62) was > 100 µM (inactive) and the GI50 (HOP-92) was > 100 µM (inactive). For the same molecule, the GI50 (HT-29) was > 100 µM (inactive), the GI50 (IGROV-1) was > 100 µM (inactive) and the GI50 (K562) was > 100 µM (inactive). The GI50 (KM-20L2) was > 100 µM (inactive), the GI50 (KM12) was > 100 µM (inactive) and the GI50 (LOX IMVI) was > 100 µM (inactive). For the same molecule, the GI50 (LXFL 529) was > 100 µM (inactive), the GI50 (M14) was > 100 µM (inactive) and the GI50 (M19-MEL) was > 100 µM (inactive). The GI50 (MOLT-4) was > 100 µM (inactive), the GI50 (Malme-3M) was > 100 µM (inactive) and the GI50 (NCI-H23) was > 100 µM (inactive). The GI50 (NCI-H460) was > 100 µM (inactive), the GI50 (NCI-H522) was > 100 µM (inactive) and the GI50 (OVCAR-3) was > 100 µM (inactive). The GI50 (OVCAR-5) was > 100 µM (inactive), the GI50 (OVCAR-8) was > 100 µM (inactive) and the GI50 (RPMI-8226) was > 100 µM (inactive). The GI50 (RXF 393) was > 100 µM (inactive), the GI50 (RXF 631) was > 100 µM (inactive) and the GI50 (SF-539) was > 100 µM (inactive). For the same molecule, the GI50 (SK-MEL-28) was > 100 µM (inactive), the GI50 (SK-MEL-2) was > 100 µM (inactive) and the GI50 (SK-OV-3) was > 100 µM (inactive). For the same molecule, the GI50 (SNB-75) was > 100 µM (inactive), the GI50 (SNB-78) was > 100 µM (inactive) and the GI50 (SW-620) was > 100 µM (inactive). The GI50 (TK-10) was > 100 µM (inactive), the GI50 (U-251) was > 100 µM (inactive) and the GI50 (UACC-257) was > 100 µM (inactive). The GI50 (UACC-62) was > 100 µM (inactive), the GI50 (UO-31) was > 100 µM (inactive) and the GI50 (XF498) was > 100 µM (inactive).
